Data reported in ChEMBL document CHEMBL5260810, “Inhibition of bromodomain-containing protein 9 for the prevention of epigenetically-defined drug resistance” (Bioorg Med Chem Lett, 2017).

Target: RAC-alpha serine/threonine-protein kinase (Homo sapiens) (UniProt P31749)
Experiment: Inhibition of AKT1 (unknown origin) at 1 uM relative to control
Conditions: not given

RAC-alpha serine/threonine-protein kinase (Homo sapiens), sequence (P31749 whole entry): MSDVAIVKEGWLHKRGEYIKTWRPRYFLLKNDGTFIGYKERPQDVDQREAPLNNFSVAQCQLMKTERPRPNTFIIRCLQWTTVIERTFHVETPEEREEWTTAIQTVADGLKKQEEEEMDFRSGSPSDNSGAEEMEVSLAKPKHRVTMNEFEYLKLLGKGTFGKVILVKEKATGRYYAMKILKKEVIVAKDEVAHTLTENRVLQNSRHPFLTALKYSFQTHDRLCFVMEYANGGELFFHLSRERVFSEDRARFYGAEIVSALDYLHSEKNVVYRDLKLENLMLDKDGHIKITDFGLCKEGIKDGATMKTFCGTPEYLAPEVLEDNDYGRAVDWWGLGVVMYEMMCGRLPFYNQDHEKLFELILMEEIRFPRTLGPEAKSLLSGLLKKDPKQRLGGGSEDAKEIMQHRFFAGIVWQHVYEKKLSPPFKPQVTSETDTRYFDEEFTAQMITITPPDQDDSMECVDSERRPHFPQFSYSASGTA

SMILES | inhibition
C/C=C/Cn1cc(-c2ccc(C(C)(C)O)cc2OC)c2cc[nH]c2c1=O | 2.5%

Target: T1, Bromodomain-containing protein 4 (Homo sapiens, UniProt O60885)
Experiment: Binding affinity to human partial length BRD4 bromodomain 1 long isoform (N44 to E168 residues) expressed in bacterial expression system by BROMOscan assay
Conditions: not given

SMILES | Kd
C/C=C/Cn1cc(-c2ccc(C(C)(C)O)cc2OC)c2cc[nH]c2c1=O | 1.6 µM

Target: Bromodomain adjacent to zinc finger domain protein 2B (Homo sapiens, UniProt Q9UIF8)
Experiment: Binding affinity to human partial length BAZ2B (S2054 to S2168 residues) expressed in bacterial expression system by BROMOscan assay
Conditions: not given

SMILES | Kd
C/C=C/Cn1cc(-c2ccc(C(C)(C)O)cc2OC)c2cc[nH]c2c1=O | > 10 µM

Target: Protein polybromo-1 (Homo sapiens, UniProt Q86U86)
Experiment: Binding affinity to human partial length PBRM1 bromodomain 5 (S645 to D766 residues) expressed in bacterial expression system by BROMOscan assay
Conditions: not given

SMILES | Kd
C/C=C/Cn1cc(-c2ccc(C(C)(C)O)cc2OC)c2cc[nH]c2c1=O | > 10 µM

System: not listed separately
Experiment: Cytotoxicity against human OCUM-1 cells measured after 8 days
Type: functional, cell-based
Conditions: OCUM1, 192 h

SMILES | IC50
C/C=C/Cn1cc(-c2ccc(C(C)(C)O)cc2OC)c2cc[nH]c2c1=O | 20 µM

System: not listed separately
Experiment: Cytotoxicity against human SW527 cells measured after 8 days
Type: functional, cell-based
Conditions: SW527, 192 h

SMILES | IC50
C/C=C/Cn1cc(-c2ccc(C(C)(C)O)cc2OC)c2cc[nH]c2c1=O | 20 µM

System: SW-620
Experiment: Cytotoxicity against human SW620 cells measured after 8 days
Type: functional, cell-based
Conditions: SW-620, 192 h

SMILES | IC50
C/C=C/Cn1cc(-c2ccc(C(C)(C)O)cc2OC)c2cc[nH]c2c1=O | 20 µM

System: Daudi
Experiment: Cytotoxicity against human Daudi cells measured after 8 days
Type: functional, cell-based
Conditions: 192 h

SMILES | IC50
C/C=C/Cn1cc(-c2ccc(C(C)(C)O)cc2OC)c2cc[nH]c2c1=O | 3.77 µM

Target: T2, Bromodomain-containing protein 1 (Homo sapiens, UniProt O95696)
T2 sequence (O95696 whole entry): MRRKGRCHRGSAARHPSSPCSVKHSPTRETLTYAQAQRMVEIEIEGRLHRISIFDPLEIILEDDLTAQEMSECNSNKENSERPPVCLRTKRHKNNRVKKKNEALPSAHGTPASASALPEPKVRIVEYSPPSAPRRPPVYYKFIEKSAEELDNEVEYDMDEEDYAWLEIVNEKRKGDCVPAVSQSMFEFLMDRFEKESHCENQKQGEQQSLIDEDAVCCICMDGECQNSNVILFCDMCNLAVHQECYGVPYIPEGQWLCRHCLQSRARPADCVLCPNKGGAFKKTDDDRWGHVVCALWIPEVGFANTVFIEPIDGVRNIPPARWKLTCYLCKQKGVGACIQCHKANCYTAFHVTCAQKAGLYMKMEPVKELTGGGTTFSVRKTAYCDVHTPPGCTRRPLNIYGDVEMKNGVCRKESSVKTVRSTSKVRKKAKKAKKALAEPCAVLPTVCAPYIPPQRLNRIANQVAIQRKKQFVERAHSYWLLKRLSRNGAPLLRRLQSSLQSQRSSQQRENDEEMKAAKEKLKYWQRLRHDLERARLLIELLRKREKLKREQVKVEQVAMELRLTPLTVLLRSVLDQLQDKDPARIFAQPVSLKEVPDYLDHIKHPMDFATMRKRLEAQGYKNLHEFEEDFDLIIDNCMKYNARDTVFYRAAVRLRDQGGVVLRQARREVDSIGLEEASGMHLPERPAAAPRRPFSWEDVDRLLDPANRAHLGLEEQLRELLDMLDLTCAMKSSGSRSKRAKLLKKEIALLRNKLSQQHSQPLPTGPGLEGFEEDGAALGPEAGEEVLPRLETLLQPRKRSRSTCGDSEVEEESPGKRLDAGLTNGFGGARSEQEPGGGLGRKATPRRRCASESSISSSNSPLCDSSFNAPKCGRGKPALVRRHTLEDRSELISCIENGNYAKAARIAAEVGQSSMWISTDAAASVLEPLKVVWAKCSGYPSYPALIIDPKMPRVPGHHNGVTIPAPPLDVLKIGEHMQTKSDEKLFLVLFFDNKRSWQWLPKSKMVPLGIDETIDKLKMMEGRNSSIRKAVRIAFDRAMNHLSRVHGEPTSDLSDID
Experiment: Binding affinity to human partial length BRD1 (E556 to A688 residues) expressed in bacterial expression system by BROMOscan assay
Conditions: not given

SMILES | Kd
C/C=C/Cn1cc(-c2ccc(C(C)(C)O)cc2OC)c2cc[nH]c2c1=O | > 10 µM

Target: Adenosine receptor A2a (Homo sapiens) (UniProt P29274)
Sequence (P29274 whole entry): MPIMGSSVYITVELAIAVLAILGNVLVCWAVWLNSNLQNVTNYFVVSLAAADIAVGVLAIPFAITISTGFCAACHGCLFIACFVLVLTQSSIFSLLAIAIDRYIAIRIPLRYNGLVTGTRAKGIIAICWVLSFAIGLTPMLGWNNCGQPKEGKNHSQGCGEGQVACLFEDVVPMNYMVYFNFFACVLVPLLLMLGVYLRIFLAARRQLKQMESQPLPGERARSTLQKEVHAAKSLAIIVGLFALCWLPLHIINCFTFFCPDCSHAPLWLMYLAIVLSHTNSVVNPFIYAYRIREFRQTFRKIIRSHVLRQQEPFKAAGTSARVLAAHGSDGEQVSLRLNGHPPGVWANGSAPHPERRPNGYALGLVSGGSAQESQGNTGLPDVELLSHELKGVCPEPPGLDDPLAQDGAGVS
Experiment: Displacement of [3H]-CGS 21680 from human recombinant adenosine A2A receptor at 10 uM after 120 mins by scintillation counting analysis relative to control
Conditions: not given

SMILES | Activity
C/C=C/Cn1cc(-c2ccc(C(C)(C)O)cc2OC)c2cc[nH]c2c1=O | 8%

Target: 5-hydroxytryptamine receptor 1B (Rattus norvegicus) (UniProt P28564)
Sequence (P28564 whole entry): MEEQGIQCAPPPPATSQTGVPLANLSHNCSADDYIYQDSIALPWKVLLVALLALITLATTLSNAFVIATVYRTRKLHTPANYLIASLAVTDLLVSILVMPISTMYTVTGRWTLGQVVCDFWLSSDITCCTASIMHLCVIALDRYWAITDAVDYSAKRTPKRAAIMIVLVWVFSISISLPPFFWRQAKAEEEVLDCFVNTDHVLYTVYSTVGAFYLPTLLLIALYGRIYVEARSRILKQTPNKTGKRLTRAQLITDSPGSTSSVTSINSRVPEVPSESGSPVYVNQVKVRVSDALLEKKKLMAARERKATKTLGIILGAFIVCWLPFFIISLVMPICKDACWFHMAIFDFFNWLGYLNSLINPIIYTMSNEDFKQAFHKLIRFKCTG
Experiment: Displacement of [125I]-CYP from rat brain 5-HT1B receptor at 10 uM after 120 mins by scintillation counting analysis relative to control
Conditions: not given

SMILES | Activity
C/C=C/Cn1cc(-c2ccc(C(C)(C)O)cc2OC)c2cc[nH]c2c1=O | -15%

Target: Bromodomain testis-specific protein (Homo sapiens, UniProt Q58F21)
Experiment: Binding affinity to BRDT bromodomain 1/2 (unknown origin) by BROMOscan assay
Conditions: not given

SMILES | Kd
C/C=C/Cn1cc(-c2ccc(C(C)(C)O)cc2OC)c2cc[nH]c2c1=O | 1.2 µM

System: not listed separately
Experiment: Cytotoxicity against human NCI-H2722 cells measured after 8 days
Type: functional, cell-based
Conditions: NCI-H2722, 192 h

SMILES | IC50
C/C=C/Cn1cc(-c2ccc(C(C)(C)O)cc2OC)c2cc[nH]c2c1=O | 20 µM

System: RL
Experiment: Cytotoxicity against human RL cells measured after 8 days
Type: functional, cell-based
Conditions: 192 h

SMILES | IC50
C/C=C/Cn1cc(-c2ccc(C(C)(C)O)cc2OC)c2cc[nH]c2c1=O | 14.8 µM

System: not listed separately
Experiment: Cytotoxicity against human KMS-27 cells measured after 8 days
Type: functional, cell-based
Conditions: KMS-27, 192 h

SMILES | IC50
C/C=C/Cn1cc(-c2ccc(C(C)(C)O)cc2OC)c2cc[nH]c2c1=O | 20 µM

System: NUGC-4
Experiment: Cytotoxicity against human NUGC-4 cells measured after 8 days
Type: functional, cell-based
Conditions: NUGC-4, 192 h

SMILES | IC50
C/C=C/Cn1cc(-c2ccc(C(C)(C)O)cc2OC)c2cc[nH]c2c1=O | 20 µM

System: OPM-2
Experiment: Cytotoxicity against human OPM-2 cells measured after 8 days
Type: functional, cell-based
Conditions: OPM-2, 192 h

SMILES | IC50
C/C=C/Cn1cc(-c2ccc(C(C)(C)O)cc2OC)c2cc[nH]c2c1=O | 13.7 µM

Target: Misshapen-like kinase 1 (Homo sapiens) (UniProt Q8N4C8)
Sequence (Q8N4C8 whole entry, looked up): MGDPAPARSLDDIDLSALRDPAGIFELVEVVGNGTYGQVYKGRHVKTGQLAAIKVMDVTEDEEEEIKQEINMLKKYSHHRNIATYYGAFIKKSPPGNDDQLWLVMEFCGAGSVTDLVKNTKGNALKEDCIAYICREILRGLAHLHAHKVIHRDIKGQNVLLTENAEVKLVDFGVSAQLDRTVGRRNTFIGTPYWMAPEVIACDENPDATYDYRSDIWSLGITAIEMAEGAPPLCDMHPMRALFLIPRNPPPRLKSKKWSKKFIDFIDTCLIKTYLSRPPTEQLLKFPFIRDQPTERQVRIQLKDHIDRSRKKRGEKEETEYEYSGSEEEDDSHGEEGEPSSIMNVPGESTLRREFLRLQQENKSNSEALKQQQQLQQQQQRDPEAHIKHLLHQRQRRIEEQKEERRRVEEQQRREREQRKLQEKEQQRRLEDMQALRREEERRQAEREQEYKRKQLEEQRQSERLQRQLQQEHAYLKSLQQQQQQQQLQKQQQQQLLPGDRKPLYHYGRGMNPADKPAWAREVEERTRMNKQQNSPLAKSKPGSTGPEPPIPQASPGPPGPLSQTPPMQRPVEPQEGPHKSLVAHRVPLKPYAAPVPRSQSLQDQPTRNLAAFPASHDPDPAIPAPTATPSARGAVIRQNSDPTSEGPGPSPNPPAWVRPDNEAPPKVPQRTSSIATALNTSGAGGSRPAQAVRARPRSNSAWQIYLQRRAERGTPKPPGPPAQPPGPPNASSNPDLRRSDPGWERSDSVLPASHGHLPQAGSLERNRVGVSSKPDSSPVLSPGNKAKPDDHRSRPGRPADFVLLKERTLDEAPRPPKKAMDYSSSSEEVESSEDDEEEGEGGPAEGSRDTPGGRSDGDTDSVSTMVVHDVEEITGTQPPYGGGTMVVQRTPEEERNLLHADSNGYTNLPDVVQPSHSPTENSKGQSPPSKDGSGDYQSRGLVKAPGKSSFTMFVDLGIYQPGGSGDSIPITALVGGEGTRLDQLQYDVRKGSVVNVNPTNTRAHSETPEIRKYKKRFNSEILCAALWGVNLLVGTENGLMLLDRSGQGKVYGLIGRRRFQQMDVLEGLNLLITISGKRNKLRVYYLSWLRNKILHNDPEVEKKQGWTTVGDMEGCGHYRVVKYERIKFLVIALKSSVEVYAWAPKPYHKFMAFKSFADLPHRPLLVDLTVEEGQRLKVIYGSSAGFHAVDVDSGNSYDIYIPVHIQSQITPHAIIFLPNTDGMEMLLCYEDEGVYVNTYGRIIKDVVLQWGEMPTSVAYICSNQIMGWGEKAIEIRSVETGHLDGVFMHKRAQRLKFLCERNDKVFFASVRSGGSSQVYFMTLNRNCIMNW
Experiment: Inhibition of Mink1 (unknown origin) at 1 uM relative to control
Conditions: not given

SMILES | inhibition
C/C=C/Cn1cc(-c2ccc(C(C)(C)O)cc2OC)c2cc[nH]c2c1=O | 18%

System: SK-MES-1
Experiment: Cytotoxicity against human SK-MES-1 cells measured after 8 days
Type: functional, cell-based
Conditions: SK-MES-1, 192 h

SMILES | IC50
C/C=C/Cn1cc(-c2ccc(C(C)(C)O)cc2OC)c2cc[nH]c2c1=O | 20 µM

System: MV4-11
Experiment: Cytotoxicity against human MV4-11 cells measured after 8 days
Type: functional, cell-based
Conditions: MV4-11, 192 h

SMILES | IC50
C/C=C/Cn1cc(-c2ccc(C(C)(C)O)cc2OC)c2cc[nH]c2c1=O | 8.02 µM

System: not listed separately
Experiment: Cytotoxicity against human OVTOKO cells measured after 8 days
Type: functional, cell-based
Conditions: 192 h

SMILES | IC50
C/C=C/Cn1cc(-c2ccc(C(C)(C)O)cc2OC)c2cc[nH]c2c1=O | 20 µM

Target: Chromatin remodeling regulator CECR2 (Homo sapiens, UniProt Q9BXF3)
Sequence (Q9BXF3 whole entry, the tested form may be a part): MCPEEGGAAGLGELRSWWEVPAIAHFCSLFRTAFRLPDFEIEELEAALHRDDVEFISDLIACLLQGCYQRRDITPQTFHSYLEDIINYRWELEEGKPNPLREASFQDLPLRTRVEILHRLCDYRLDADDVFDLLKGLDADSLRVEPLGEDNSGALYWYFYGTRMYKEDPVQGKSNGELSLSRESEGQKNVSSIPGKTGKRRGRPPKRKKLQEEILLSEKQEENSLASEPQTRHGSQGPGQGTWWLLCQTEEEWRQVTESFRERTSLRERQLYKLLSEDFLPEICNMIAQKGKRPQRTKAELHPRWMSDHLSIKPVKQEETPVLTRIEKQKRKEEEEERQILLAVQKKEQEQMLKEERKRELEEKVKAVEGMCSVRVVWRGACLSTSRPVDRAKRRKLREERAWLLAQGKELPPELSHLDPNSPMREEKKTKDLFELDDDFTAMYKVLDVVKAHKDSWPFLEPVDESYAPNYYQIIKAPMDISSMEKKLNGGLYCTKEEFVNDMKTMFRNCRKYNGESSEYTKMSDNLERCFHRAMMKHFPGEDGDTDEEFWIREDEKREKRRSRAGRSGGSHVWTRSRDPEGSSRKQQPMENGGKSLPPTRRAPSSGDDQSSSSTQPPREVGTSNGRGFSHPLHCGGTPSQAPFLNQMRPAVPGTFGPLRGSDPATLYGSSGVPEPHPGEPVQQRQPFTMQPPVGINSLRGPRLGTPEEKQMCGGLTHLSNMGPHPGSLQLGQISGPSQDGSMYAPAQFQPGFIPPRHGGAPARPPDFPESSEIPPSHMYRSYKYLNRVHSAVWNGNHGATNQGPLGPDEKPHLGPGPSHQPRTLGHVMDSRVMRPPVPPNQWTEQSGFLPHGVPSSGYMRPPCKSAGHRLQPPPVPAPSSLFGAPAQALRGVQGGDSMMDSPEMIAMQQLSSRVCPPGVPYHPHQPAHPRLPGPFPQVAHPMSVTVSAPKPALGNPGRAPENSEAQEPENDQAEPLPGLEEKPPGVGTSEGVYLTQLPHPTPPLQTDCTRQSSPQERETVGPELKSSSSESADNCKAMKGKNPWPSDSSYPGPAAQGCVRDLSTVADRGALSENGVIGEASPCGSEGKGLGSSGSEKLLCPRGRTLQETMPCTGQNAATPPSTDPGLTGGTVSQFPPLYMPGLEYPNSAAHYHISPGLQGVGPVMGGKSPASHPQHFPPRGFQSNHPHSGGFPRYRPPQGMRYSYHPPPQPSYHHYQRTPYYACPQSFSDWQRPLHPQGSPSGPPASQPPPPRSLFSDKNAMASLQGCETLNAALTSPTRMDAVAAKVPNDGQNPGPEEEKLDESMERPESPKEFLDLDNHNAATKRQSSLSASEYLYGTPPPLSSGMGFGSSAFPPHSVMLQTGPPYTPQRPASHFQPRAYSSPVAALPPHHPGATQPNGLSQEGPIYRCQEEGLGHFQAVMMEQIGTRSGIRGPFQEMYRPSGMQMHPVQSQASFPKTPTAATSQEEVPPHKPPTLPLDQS
Experiment: Binding affinity to human partial length CECR2 (P423 to D543 residues) expressed in bacterial expression system by BROMOscan assay
Conditions: not given

SMILES | Kd
C/C=C/Cn1cc(-c2ccc(C(C)(C)O)cc2OC)c2cc[nH]c2c1=O | > 10 µM

System: HCC4006
Experiment: Cytotoxicity against human HCC4006 cells measured after 8 days
Type: functional, cell-based
Conditions: HCC4006, 192 h

SMILES | IC50
C/C=C/Cn1cc(-c2ccc(C(C)(C)O)cc2OC)c2cc[nH]c2c1=O | 20 µM

System: SNU-C1
Experiment: Cytotoxicity against human SNU-C1 cells measured after 8 days
Type: functional, cell-based
Conditions: SNU-C1, 192 h

SMILES | IC50
C/C=C/Cn1cc(-c2ccc(C(C)(C)O)cc2OC)c2cc[nH]c2c1=O | 20 µM

System: SKM-1
Experiment: Cytotoxicity against human SKM-1 cells measured after 8 days
Type: functional, cell-based
Conditions: SKM-1, 192 h

SMILES | IC50
C/C=C/Cn1cc(-c2ccc(C(C)(C)O)cc2OC)c2cc[nH]c2c1=O | 20 µM

Target: T1, Bromodomain-containing protein 4
Experiment: Binding affinity to human partial length BRD4 bromodomain 2 long isoform (K333 to E460 residues) expressed in bacterial expression system by BROMOscan assay
Conditions: not given

SMILES | Kd
C/C=C/Cn1cc(-c2ccc(C(C)(C)O)cc2OC)c2cc[nH]c2c1=O | 3.7 µM

System: ONS-76
Experiment: Cytotoxicity against human ONS-76 cells measured after 8 days
Type: functional, cell-based
Conditions: ONS-76, 192 h

SMILES | IC50
C/C=C/Cn1cc(-c2ccc(C(C)(C)O)cc2OC)c2cc[nH]c2c1=O | 20 µM

System: HCC4017
Experiment: Cytotoxicity against human HCC4017 cells measured after 8 days
Type: functional, cell-based
Conditions: HCC4017, 192 h

SMILES | IC50
C/C=C/Cn1cc(-c2ccc(C(C)(C)O)cc2OC)c2cc[nH]c2c1=O | 20 µM

System: not listed separately
Experiment: Cytotoxicity against human OV7 cells measured after 8 days
Type: functional, cell-based
Conditions: OV7, 192 h

SMILES | IC50
C/C=C/Cn1cc(-c2ccc(C(C)(C)O)cc2OC)c2cc[nH]c2c1=O | 20 µM

System: EVSA-T
Experiment: Cytotoxicity against human EVSA-T cells measured after 8 days
Type: functional, cell-based
Conditions: 192 h

SMILES | IC50
C/C=C/Cn1cc(-c2ccc(C(C)(C)O)cc2OC)c2cc[nH]c2c1=O | 20 µM

System: not listed separately
Experiment: Cytotoxicity against human NCI-H1339 cells measured after 8 days
Type: functional, cell-based
Conditions: NCI-H1339, 192 h

SMILES | IC50
C/C=C/Cn1cc(-c2ccc(C(C)(C)O)cc2OC)c2cc[nH]c2c1=O | 20 µM

Target: Muscarinic acetylcholine receptor M3 (Homo sapiens) (UniProt P20309)
Sequence (P20309 whole entry, looked up): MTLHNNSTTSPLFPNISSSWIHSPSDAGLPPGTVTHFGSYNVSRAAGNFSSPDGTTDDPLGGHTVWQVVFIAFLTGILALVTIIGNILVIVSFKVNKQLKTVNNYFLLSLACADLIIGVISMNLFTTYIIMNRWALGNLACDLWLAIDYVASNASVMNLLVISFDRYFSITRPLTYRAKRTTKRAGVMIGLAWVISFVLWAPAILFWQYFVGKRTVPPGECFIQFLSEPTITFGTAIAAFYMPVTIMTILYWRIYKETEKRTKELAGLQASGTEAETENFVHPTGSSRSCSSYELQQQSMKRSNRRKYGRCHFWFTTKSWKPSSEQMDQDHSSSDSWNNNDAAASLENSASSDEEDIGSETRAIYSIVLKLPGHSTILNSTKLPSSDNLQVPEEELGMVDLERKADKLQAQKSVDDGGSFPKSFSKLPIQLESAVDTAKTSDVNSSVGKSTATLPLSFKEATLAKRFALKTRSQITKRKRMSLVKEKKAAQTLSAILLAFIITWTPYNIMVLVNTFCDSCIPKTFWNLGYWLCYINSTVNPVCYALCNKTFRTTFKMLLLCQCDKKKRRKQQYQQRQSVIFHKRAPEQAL
Experiment: Displacement of [3H]4-DAMP from human recombinant M3 receptor at 10 uM after 60 mins by scintillation counting analysis relative to control
Conditions: not given

SMILES | Activity
C/C=C/Cn1cc(-c2ccc(C(C)(C)O)cc2OC)c2cc[nH]c2c1=O | 6%
